Measured values reported in PMC9090410 (Journal of Enzyme Inhibition and Medicinal Chemistry, 2022).

Experiments:
Recombinant HDAC 3 = target: T1, Recombinant HDAC 3 (Homo sapiens, UniProt O15379); assay: Recombinant HDAC3 inhibition, fluorometric assay, 8 h incubation; assay type: biochemical; settings: for IC50: recombinant HDAC3, fluorometric assay, incubating for 8 h, standard deviation in parentheses
T1 construct: purchased not specified (Fisher Scientific, Sigma-Aldrich or Chem-Impex are named for all reagents)
Experimental: (§1) Once prepared, the compounds were screened for inhibition of HDAC activity from the cell lysates of HeLa cells and the recombinant isoforms HDAC3 and HDAC8. […]
(§2) then added followed by further incubation for 10 min at 25 °C. The enzyme activities was measured based on the fluorescence intensity at excitation 350-380 nm and emission 440-480 nm in a plate reader. A control set of data without the presence of inhibitor was acquired using 45 µL of buffer.
(§3) Inhibitors 1-7 were screened using a commercially available In Situ Histone Deacetylase Activity […]
(§4) divergence being the 8 hr incubation time.

[1] = test system: HDACs from HeLa cell lysates; assay type: biochemical; settings: for IC50: HeLa cell extract, fluorometric assay, incubating for 8 h, standard deviation in parentheses, read-out: HeLa Cell Lysate IC50
Experimental: as §1, §2, §3, §4

Recombinant HDAC 8 = target: T2, Recombinant HDAC 8 (Homo sapiens, UniProt Q9BY41); assay: Recombinant HDAC8 inhibition, fluorometric assay, 8 h incubation; assay type: biochemical; settings: for IC50: recombinant HDAC8, fluorometric assay, incubating for 8 h, standard deviation in parentheses
T2 construct: purchased not specified (Fisher Scientific, Sigma-Aldrich or Chem-Impex are named for all reagents)
T2 sequence (Q9BY41 1-377): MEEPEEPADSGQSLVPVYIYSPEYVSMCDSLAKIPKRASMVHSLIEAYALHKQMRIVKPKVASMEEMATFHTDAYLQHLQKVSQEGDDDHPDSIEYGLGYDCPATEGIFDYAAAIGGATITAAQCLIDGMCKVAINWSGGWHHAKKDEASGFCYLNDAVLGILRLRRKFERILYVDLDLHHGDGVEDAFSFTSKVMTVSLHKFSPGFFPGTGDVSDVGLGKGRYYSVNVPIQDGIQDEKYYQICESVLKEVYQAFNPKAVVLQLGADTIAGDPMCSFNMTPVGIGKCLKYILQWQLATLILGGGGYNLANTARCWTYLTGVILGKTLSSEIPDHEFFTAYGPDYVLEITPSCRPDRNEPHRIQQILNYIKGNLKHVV
Experimental: as §1, §2, §3, §4

HeLa cell lysates = settings: 10 h incubation time; ref Kapustin et al. (23); read-out: IC50 Hela cell lysate; cited from earlier work
[2] = time course enzyme inhibition assay, inhibitor at 100 μM

T1 sequence (O15379 whole entry): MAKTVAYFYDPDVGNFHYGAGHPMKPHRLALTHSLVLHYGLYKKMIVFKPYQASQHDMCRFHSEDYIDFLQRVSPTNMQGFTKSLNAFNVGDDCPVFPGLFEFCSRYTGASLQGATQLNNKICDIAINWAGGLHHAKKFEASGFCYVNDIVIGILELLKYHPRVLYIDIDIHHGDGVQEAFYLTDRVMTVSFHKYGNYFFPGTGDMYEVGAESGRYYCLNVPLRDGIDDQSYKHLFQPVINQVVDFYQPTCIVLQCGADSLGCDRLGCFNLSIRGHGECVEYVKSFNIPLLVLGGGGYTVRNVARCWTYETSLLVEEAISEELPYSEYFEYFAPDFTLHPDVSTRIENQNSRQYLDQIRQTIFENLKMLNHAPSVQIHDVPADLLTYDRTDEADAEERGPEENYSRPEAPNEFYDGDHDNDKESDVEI
T1 sequence (Q9Y618 395-489 partner limits assumed): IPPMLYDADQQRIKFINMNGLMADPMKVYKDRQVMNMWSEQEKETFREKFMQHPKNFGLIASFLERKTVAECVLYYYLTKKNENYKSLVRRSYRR

SMILES | IC50 (Recombinant HDAC 3) [µM] | Incubation time of optimal inhibition, HDAC 3 (Recombinant HDAC 3; [2]) [h] | IC50 [1] [µM] | Incubation time of optimal inhibition, HeLa cell lysate [1, 2] [h] | IC50 (Recombinant HDAC 8) [µM] | Incubation time of optimal inhibition, HDAC 8 (Recombinant HDAC 8; [2]) [h] | IC50 (HeLa cell lysates) [µM]
O=C(CCCCCNP(=O)(O)O)Nc1ccccc1 [Compound 2] | 240 | 4 | 70 | 8 | 129 | 8 | 
O=C(CCCCOP(=O)(O)O)Nc1ccccc1 [Compound 4] |  |  | 2200 |  |  |  | 
O=C(CCCCCOP(=O)(O)O)Nc1ccccc1 [Compound 5] | 690 |  | 60 |  | 179 |  | 
O=C(CCCCCCOP(=O)(O)O)Nc1ccccc1 [Compound 6] |  |  | 3900 |  |  |  | 
O=C(CCCCCOP(O)(O)=S)Nc1ccccc1 [Compound 7] | 103 |  | 50 |  | 49 |  | 
CP(=O)(O)CCCCCC(=O)Nc1ccccc1 [PA3] |  |  |  |  |  |  | 6100
